One data set concerns C. glabrata ATCC 15126. Format: cell-based, Candida glabrata. Conditions: ATCC 15126, 24 h. As to the method:
(§1) The Acinetobacter baumannii ATCC BAA-1605, Enterococcus faecium ATCC 700221, Klebsiella aerogenes ATCC 13048, Klebsiella pneumoniae ATCC 700603, Pseudomonas aeruginosa ATCC 9027, Staphylococcus aureus ATCC 33591, Candida glabrata ATCC 15126, strains were acquired from the American Type Culture Collection (ATCC). All the strains were stored at −80 °C in Roti-Store cryo vials and were transferred into fresh Mueller–Hinton broth (MHB, Becton Dickinson, Warsaw, Poland) for bacteria or RPMI-1640 (Sigma-Aldrich, Steinheim, Germany) for fungi before the tests and incubated for 24 h at 37 °C. Then, the cultures were seeded on the Mueller–Hinton agar (BioMaxima, Lublin, Poland) or Sabouraud dextrose agar (SDA, BioMaxima, Lublin, Poland) plates, respectively, and incubated as just mentioned. These agar cultures were used for further microbiological assays. Cell densities for all assays were adjusted spectrophotometrically (Multiskan GO Microplate Spectrophotometer, Thermo Fisher Scientific, Vantaa, Finland) at 600 and 530 nm for bacteria and fungi, respectively.
(§2) The MICs were determined using a broth microdilution method according to the Clinical and Laboratory Standard Institute guidelines. For this purpose, initial inoculums of bacteria (5 × 10^5 CFU/mL) in MHB and yeasts (2 × 10^3 CFU/mL) in RPMI-1640 with 2% D-glucose were exposed to the ranging concentration of lipopeptides (1–512 μg/mL) and incubated at 37 °C for 18 h and 24 h, respectively. The experiments were conducted on 96-well microtiter polystyrene plates (Kartell, Italy). The growth was assessed visually after incubation and the MIC was assumed as the lowest peptide concentration at which a noticeable growth of microorganisms was inhibited. All experiments were conducted in triplicate.

The subject of a further data set is K. aerogenes ATCC 13048. Format: cell-based, Klebsiella aerogenes. The following applies: ATCC 13048, 18 h. As to the method:
as §1, §2

A further data set concerns P. aeruginosa ATCC 9027. The class given is cell-based, Pseudomonas aeruginosa. Conditions: ATCC 9027, 18 h. As to the method:
as §1, §2

Data set [1] has as its system A. baumannii ATCC BAA 1605. Format: cell-based, Acinetobacter baumannii. The following applies: ATCC BAA 1605, 18 h. As for the experimental part: as §1, §2
The subject of another data set is E. faecium ATCC 700221. Format: cell-based, Enterococcus faecium. The following applies: ATCC 700221, 18 h. As for the experimental part: as §1, §2
Data set [2] has as its system human red blood cells (RBCs). Kind of data set: Hemolysis assay. The class given is cell-based. Conditions: human RBCs 4% (v/v) in PBS, 60 min, 37 °C, absorbance 540 nm, 1–512 µg/mL; triplicate. As for the experimental part: The hemolysis assay was conducted using a procedure described previously. For this purpose, fresh human red blood cells (RBCs) with EDTA anticoagulant were washed three times with phosphate-buffer saline (PBS) using centrifugation at 800× g for 10 min and resuspended in PBS. Then, the stock solution of RBCs was added to serial dilution of peptides on 96-well polystyrene plates to reach a final volume of 100 µL with 4% concentration of erythrocytes (v/v) over the concentration range of 1–512 µg/mL of the tested compounds. The control wells for the 0% and 100% hemolysis consisted of RBCs suspended in PBS and 1% of Triton X–100, respectively. Subsequently, the plates were incubated for 60 min at 37 °C and then centrifuged at 800× g for 10 min at 4 °C (Sorvall ST 16R Centrifuge, Thermo Scientific, Osterode am Harz, Germany). After centrifugation, the supernatant was carefully […] to new microtiter plates and the release of hemoglobin was monitored through absorbance measurements at 540 nm (Multiskan™ GO Microplate Spectrophotometer, Thermo Scientific). All experiments were conducted in triplicate.
The lipopeptides were tested against human erythrocytes in order to evaluate their hemolytic activity. Moreover, selectivity indexes (SI) were calculated by dividing the HC50 by MIC. […] In some cases, glycosylation led to suppressed toxicity, e.g., a comparison of C14 peptides analogs: 1–3 and 10–12. On the other hand, an increase in toxicity of C18 analogs (7–9 vs. 16–18) was found for glycosylated USCLs. For this reason, SI was calculated to provide a correlation between antimicrobial activity and toxicity. […] Among gUSCLs: 10 and 11 with C14 fatty acid and 16–18 should be highlighted owing to their high selectivity against E. fecium and C. glabrata.

This is an account of results in publication PMC9855884, “Glycosylated Lipopeptides—Synthesis and Evaluation of Antimicrobial Activity and Cytotoxicity” (Biomolecules, 2023).

Converted amounts (≈) assume the structure as drawn. Where a SMILES comes first, the peptide text is derived from it. The star is where a group is joined. βGlcNAc = CC(=O)N[C@@H]1[C@@H](O)[C@H](O)[C@@H](CO)O[C@H]1*; Palmitoyl = CCCCCCCCCCCCCCCC(=O)*; Myristoyl = CCCCCCCCCCCCCC(=O)*

With `CCCCCCCCCCCCCCCC(=O)N[C@@H](CCCNC(=N)N)C(=O)N[C@@H](CO)C(=O)N[C@@H](CCCNC(=N)N)C(N)=O` [Peptide 5, C16-RSR-NH2] (Palmitoyl-Arg-Ser-Arg-NH2), the MIC (commonly the lowest concentration found to suppress growth) amounted to 8 µg/mL (≈ 12.2 µM) in the data set with C. glabrata ATCC 15126; 32 µg/mL (≈ 48.9 µM) with K. aerogenes ATCC 13048; 64 µg/mL (≈ 97.7 µM) against P. aeruginosa ATCC 9027; 32 µg/mL (≈ 48.9 µM) in data set [1]; 8 µg/mL (≈ 12.2 µM) with E. faecium ATCC 700221. Moreover, in data set [2], the “HC50 (hemolytic activity)” value was found to be 82.21 ± 2.07 µg/mL.

With `CCCCCCCCCCCCCC(=O)N[C@@H](CO[C@@H]1O[C@H](CO)[C@@H](O)[C@H](O)[C@H]1NC(C)=O)C(=O)N[C@@H](CCCNC(=N)N)C(=O)N[C@@H](CCCNC(=N)N)C(N)=O` [Peptide 10, C14-S(GlcNAc)RR-NH2] (Myristoyl-Ser(βGlcNAc)-Arg-Arg-NH2), the MIC was 256 µg/mL (≈ 308 µM) against C. glabrata ATCC 15126; more than 512 µg/mL in the data set on K. aerogenes ATCC 13048; 256 µg/mL (≈ 308 µM) in the data set on P. aeruginosa ATCC 9027; 128 µg/mL (≈ 154 µM) in data set [1]; 32 µg/mL (≈ 38.6 µM) in the data set with E. faecium ATCC 700221. Further, the “HC50 (hemolytic activity)” value in data set [2] is on record as more than 512 µg/mL.

With `CCCCCCCCCCCCCC(=O)N[C@@H](CCCNC(=N)N)C(=O)N[C@@H](CO)C(=O)N[C@@H](CCCNC(=N)N)C(N)=O` [Peptide 2, C14-RSR-NH2] (Myristoyl-Arg-Ser-Arg-NH2), the MIC against C. glabrata ATCC 15126 is 32 µg/mL (≈ 51 µM); in the data set with K. aerogenes ATCC 13048, 512 µg/mL (≈ 817 µM); with P. aeruginosa ATCC 9027, 64 µg/mL (≈ 102 µM); in data set [1] it was 64 µg/mL (≈ 102 µM); against E. faecium ATCC 700221, 8 µg/mL (≈ 12.8 µM). In addition, the “HC50 (hemolytic activity)” value in data set [2] is given as 186.64 ± 2.14 µg/mL.

Consider `CCCCCCCCCCCCCC(=O)N[C@@H](CCCNC(=N)N)C(=O)N[C@@H](CO[C@@H]1O[C@H](CO)[C@@H](O)[C@H](O)[C@H]1NC(C)=O)C(=O)N[C@@H](CCCNC(=N)N)C(N)=O` [Peptide 11, C14-RS(GlcNAc)R-NH2] (Myristoyl-Arg-Ser(βGlcNAc)-Arg-NH2), for which the MIC is reported as 128 µg/mL (≈ 154 µM) in the data set with C. glabrata ATCC 15126; more than 512 µg/mL in the data set on K. aerogenes ATCC 13048; 128 µg/mL (≈ 154 µM) with P. aeruginosa ATCC 9027; 64 µg/mL (≈ 77.1 µM) in data set [1]; 32 µg/mL (≈ 38.6 µM) against E. faecium ATCC 700221. The “HC50 (hemolytic activity)” value in data set [2] came out at 364.17 ± 105.10 µg/mL.

On to `CCCCCCCCCCCCCCCC(=O)N[C@@H](CCCNC(=N)N)C(=O)N[C@@H](CO[C@@H]1O[C@H](CO)[C@@H](O)[C@H](O)[C@H]1NC(C)=O)C(=O)N[C@@H](CCCNC(=N)N)C(N)=O` [Peptide 14, C16-RS(GlcNAc)R-NH2] (Palmitoyl-Arg-Ser(βGlcNAc)-Arg-NH2), for which the MIC against C. glabrata ATCC 15126 is reported as 16 µg/mL (≈ 18.6 µM); in the data set with K. aerogenes ATCC 13048, 64 µg/mL (≈ 74.6 µM); with P. aeruginosa ATCC 9027, 32 µg/mL (≈ 37.3 µM); in data set [1] it was 32 µg/mL (≈ 37.3 µM); against E. faecium ATCC 700221, 16 µg/mL (≈ 18.6 µM). Also, in data set [2], the “HC50 (hemolytic activity)” value is reported as 73.34 ± 1.63 µg/mL.

For `CCCCCCCCCCCCCCCC(=O)N[C@@H](CCCNC(=N)N)C(=O)N[C@@H](CCCNC(=N)N)C(=O)N[C@@H](CO)C(N)=O` [Peptide 6, C16-RRS-NH2] (Palmitoyl-Arg-Arg-Ser-NH2), the MIC against C. glabrata ATCC 15126 was determined as 8 µg/mL (≈ 12.2 µM); against K. aerogenes ATCC 13048, 64 µg/mL (≈ 97.7 µM); against P. aeruginosa ATCC 9027 it was 16 µg/mL (≈ 24.4 µM); in data set [1] it was 32 µg/mL (≈ 48.9 µM); with E. faecium ATCC 700221 it was 8 µg/mL (≈ 12.2 µM). Further, in data set [2], the “HC50 (hemolytic activity)” value turned out to be 75.95 ± 1.57 µg/mL.

For the molecule `CCCCCCCCCCCCCCCC(=O)N[C@@H](CO)C(=O)N[C@@H](CCCNC(=N)N)C(=O)N[C@@H](CCCNC(=N)N)C(N)=O` [Peptide 4, C16-SRR-NH2] (Palmitoyl-Ser-Arg-Arg-NH2), the minimum inhibitory concentration (MIC) stood at 4 µg/mL (≈ 6.11 µM) against C. glabrata ATCC 15126; 16 µg/mL (≈ 24.4 µM) in the data set with K. aerogenes ATCC 13048; 16 µg/mL (≈ 24.4 µM) in the data set on P. aeruginosa ATCC 9027; 32 µg/mL (≈ 48.9 µM) in data set [1]; 8 µg/mL (≈ 12.2 µM) in the data set with E. faecium ATCC 700221. Besides, the “HC50 (hemolytic activity)” value in data set [2] was determined as 75.46 ± 0.73 µg/mL.

Turning to `CCCCCCCCCCCCCC(=O)N[C@@H](CCCNC(=N)N)C(=O)N[C@@H](CCCNC(=N)N)C(=O)N[C@@H](CO)C(N)=O` [Peptide 3, C14-RRS-NH2] (Myristoyl-Arg-Arg-Ser-NH2), the MIC in the data set with C. glabrata ATCC 15126 is given as 32 µg/mL (≈ 51 µM); against K. aerogenes ATCC 13048 it was 512 µg/mL (≈ 817 µM); with P. aeruginosa ATCC 9027 it was 64 µg/mL (≈ 102 µM); in data set [1], 64 µg/mL (≈ 102 µM); against E. faecium ATCC 700221, 8 µg/mL (≈ 12.8 µM). Besides, the “HC50 (hemolytic activity)” value in data set [2] is recorded as 227.01 ± 5.69 µg/mL.

On to `CCCCCCCCCCCCCCCC(=O)N[C@@H](CCCNC(=N)N)C(=O)N[C@@H](CCCNC(=N)N)C(=O)N[C@@H](CO[C@@H]1O[C@H](CO)[C@@H](O)[C@H](O)[C@H]1NC(C)=O)C(N)=O` [Peptide 15, C16-RRS(GlcNAc)-NH2] (Palmitoyl-Arg-Arg-Ser(βGlcNAc)-NH2), for which the MIC against C. glabrata ATCC 15126 is recorded as 16 µg/mL (≈ 18.6 µM); in the data set on K. aerogenes ATCC 13048, 256 µg/mL (≈ 298 µM); in the data set with P. aeruginosa ATCC 9027, 64 µg/mL (≈ 74.6 µM); in data set [1], 32 µg/mL (≈ 37.3 µM); in the data set on E. faecium ATCC 700221 it was 8 µg/mL (≈ 9.32 µM). Moreover, the “HC50 (hemolytic activity)” value in data set [2] is given as 111.45 ± 11.65 µg/mL.

`CCCCCCCCCCCCCCCC(=O)N[C@@H](CO[C@@H]1O[C@H](CO)[C@@H](O)[C@H](O)[C@H]1NC(C)=O)C(=O)N[C@@H](CCCNC(=N)N)C(=O)N[C@@H](CCCNC(=N)N)C(N)=O` [Peptide 13, C16-S(GlcNAc)RR-NH2] (Palmitoyl-Ser(βGlcNAc)-Arg-Arg-NH2): the MIC against C. glabrata ATCC 15126 was found to be 32 µg/mL (≈ 37.3 µM); in the data set with K. aerogenes ATCC 13048, 512 µg/mL (≈ 597 µM); against P. aeruginosa ATCC 9027 it was 32 µg/mL (≈ 37.3 µM); in data set [1] it was 32 µg/mL (≈ 37.3 µM); in the data set with E. faecium ATCC 700221 it was 16 µg/mL (≈ 18.6 µM). The “HC50 (hemolytic activity)” value in data set [2] stood at 95.39 ± 2.40 µg/mL.

For the molecule `CCCCCCCCCCCCCC(=O)N[C@@H](CCCNC(=N)N)C(=O)N[C@@H](CCCNC(=N)N)C(=O)N[C@@H](CO[C@@H]1O[C@H](CO)[C@@H](O)[C@H](O)[C@H]1NC(C)=O)C(N)=O` [Peptide 12, C14-RRS(GlcNAc)-NH2] (Myristoyl-Arg-Arg-Ser(βGlcNAc)-NH2), the MIC against C. glabrata ATCC 15126 is 128 µg/mL (≈ 154 µM); with K. aerogenes ATCC 13048 it was more than 512 µg/mL; against P. aeruginosa ATCC 9027, 256 µg/mL (≈ 308 µM); in data set [1] it was 64 µg/mL (≈ 77.1 µM); in the data set with E. faecium ATCC 700221 it was 16 µg/mL (≈ 19.3 µM). The “HC50 (hemolytic activity)” value in data set [2] was found to be 345.72 ± 51.94 µg/mL.
